From PubChem BioAssay AID330 (DTP/NCI, 2004)
“And” between values parts separate entries of the source, which are not always exact repeats. Equal entries are not always repeated. Toxic doses and inconclusive results are not listed. Rule for the calls: active = survival T/C of 150% or more; inactive = T/C below 125% in these data. Peptide text beside a SMILES is read from it.

Test system: P388 leukemia ip, CD2F1 mice, survival T/C
Assay: NCI In Vivo Anticancer Drug Screen. Data for tumor model P388 Leukemia (intraperitoneal) in CD2F1 (CDF1) mice
Details: endpoint: median survival time, higher = longer survival
How it was run: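 Mice carrying the transplanted tumor received test compound or vehicle. Survival was recorded in each group, and the value is the treated-group measurement divided by that of the vehicle-treated control group.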

[1] = dose: 50.0 mg/kg/injection, schedule: Q01DX005 (ip), vehicle: saline
[2] = dose: 100.0 mg/kg/injection, schedule: Q01DX005 (ip), vehicle: saline
[3] = dose: 200.0 mg/kg/injection, schedule: Q01DX005 (ip), vehicle: saline
[4] = dose: 50.0 mg/kg/injection, schedule: Q01DX005 (ip), vehicle: saline with Tween-80
[5] = dose: 60.0 mg/kg/injection, schedule: Q01DX005 (ip), vehicle: saline with Tween-80
[6] = dose: 120.0 mg/kg/injection, schedule: Q01DX005 (ip), vehicle: saline with Tween-80
[7] = dose: 240.0 mg/kg/injection, schedule: Q01DX005 (ip), vehicle: saline with Tween-80
[8] = dose: 50.0 mg/kg/injection, schedule: Q01DX005 (ip), vehicle: Klucel (hydroxypropylcellulose) (HPC)
[9] = dose: 100.0 mg/kg/injection, schedule: Q01DX005 (ip), vehicle: Klucel (hydroxypropylcellulose) (HPC)
[10] = dose: 100.0 mg/kg/injection, schedule: Q01DX005 (ip), vehicle: saline with Tween-80
[11] = dose: 200.0 mg/kg/injection, schedule: Q01DX005 (ip), vehicle: saline with Tween-80

Measured: T/C

COC(=O)/C=C(\Cl)C(=O)OC
inactive: dose: 0.62 mg/kg/injection, schedule: Q01DX009 (ip), vehicle: saline with Tween-80 101 % of control | dose: 1.25 mg/kg/injection, schedule: Q01DX009 (ip), vehicle: saline with Tween-80 101 % of control | dose: 2.5 mg/kg/injection, schedule: Q01DX009 (ip), vehicle: saline with Tween-80 105 % of control | dose: 5.0 mg/kg/injection, schedule: Q01DX009 (ip), vehicle: saline with Tween-80 102 % of control | dose: 10.0 mg/kg/injection, schedule: Q01DX009 (ip), vehicle: saline with Tween-80 105 % of control

OCCN(CCO)Cc1nc2ccc(Cl)cc2[nH]1
inactive: [1] 98 % of control | [2] 91 % of control | [3] 95 % of control

COc1cc(C(=O)N=Nc2c(O)[nH]c3ccc(Br)cc23)cc(OC)c1OC
inactive: dose: 3.13 mg/kg/injection, schedule: Q01DX009 (ip), vehicle: Klucel (hydroxypropylcellulose) (HPC) 115 % of control | dose: 6.25 mg/kg/injection, schedule: Q01DX009 (ip), vehicle: Klucel (hydroxypropylcellulose) (HPC) 106 % of control | dose: 12.5 mg/kg/injection, schedule: Q01DX009 (ip), vehicle: Klucel (hydroxypropylcellulose) (HPC) 105 % of control | dose: 400.0 mg/kg/injection, schedule: Q01DX009 (ip), vehicle: Klucel (hydroxypropylcellulose) (HPC) 86 % of control

O=C(NO)C(O)C(O)C(O)C(O)CO (stereo unspecified)
inactive: dose: 12.5 mg/kg/injection, schedule: Q01DX009 (ip), vehicle: saline 93 % of control | dose: 25.0 mg/kg/injection, schedule: Q01DX009 (ip), vehicle: saline 91 % of control | dose: 50.0 mg/kg/injection, schedule: Q01DX009 (ip), vehicle: saline 98 % of control and 97 % of control | dose: 200.0 mg/kg/injection, schedule: Q01DX009 (ip), vehicle: saline 86 % of control

CC(C)[C@](O)(C(=O)OCC1CCN2CC[C@@H](O)C12)[C@H](C)O (stereo partly specified)
inactive: dose: 40.6 mg/kg/injection, schedule: Q01DX009 (ip), vehicle: saline 96 % of control | dose: 81.25 mg/kg/injection, schedule: Q01DX009 (ip), vehicle: saline 102 % of control | dose: 162.5 mg/kg/injection, schedule: Q01DX009 (ip), vehicle: saline 92 % of control and 98 % of control

CNC(=O)Oc1cc(C)c[n+]([O-])c1
inactive: [1] 100 % of control | [2] 104 % of control | [3] 104 % of control

Nc1nnnn1NC(=O)c1ccccc1
inactive: dose: 100.0 mg/kg/injection, schedule: Q04DX003 (ip), vehicle: Klucel (hydroxypropylcellulose) (HPC) 97 % of control | dose: 200.0 mg/kg/injection, schedule: Q04DX003 (ip), vehicle: Klucel (hydroxypropylcellulose) (HPC) 102 % of control | dose: 400.0 mg/kg/injection, schedule: Q04DX003 (ip), vehicle: Klucel (hydroxypropylcellulose) (HPC) 98 % of control

C=C1C2(CN)CCC(C2)C1(C)C (stereo unspecified)
inactive: dose: 6.25 mg/kg/injection, schedule: Q01DX009 (ip), vehicle: saline with Tween-80 101 % of control | dose: 12.5 mg/kg/injection, schedule: Q01DX001 (ip), vehicle: saline with Tween-80 96 % of control | dose: 12.5 mg/kg/injection, schedule: Q01DX009 (ip), vehicle: saline with Tween-80 98 % of control | dose: 25.0 mg/kg/injection, schedule: Q01DX001 (ip), vehicle: saline with Tween-80 101 % of control | dose: 25.0 mg/kg/injection, schedule: Q01DX009 (ip), vehicle: saline with Tween-80 98 % of control | dose: 50.0 mg/kg/injection, schedule: Q01DX001 (ip), vehicle: saline with Tween-80 99 % of control

CC1C2CC3OC(=O)C1C3C2 (stereo unspecified)
inactive: dose: 12.5 mg/kg/injection, schedule: Q01DX005 (ip), vehicle: saline with Tween-80 102 % of control | dose: 25.0 mg/kg/injection, schedule: Q01DX005 (ip), vehicle: saline with Tween-80 102 % of control | [4] 99 % of control and 106 % of control

Nc1ncnc2nc(-c3ccc(C[P+](c4ccccc4)(c4ccccc4)c4ccccc4)cc3)[nH]c12
inactive: [5] 95 % of control | [6] 95 % of control | [7] 95 % of control

COC(=O)N1C=CC2ON=C(OC)C2C1 (stereo unspecified)
inactive: [5] 95 % of control | [6] 100 % of control | [7] 94 % of control

CC(C)C(NC(=O)C(NC(=O)C(CCCN=C(N)N)NC(=O)C(N)CCCCN)C(C)C)C(N)=O (stereo unspecified) (H-KRVV-NH2; configuration not given here)
inactive: dose: 12.5 mg/kg/injection, schedule: Q01DX009 (ip), vehicle: water 114 % of control | dose: 25.0 mg/kg/injection, schedule: Q01DX009 (ip), vehicle: water 104 % of control | dose: 50.0 mg/kg/injection, schedule: Q01DX009 (ip), vehicle: water 110 % of control | dose: 100.0 mg/kg/injection, schedule: Q01DX009 (ip), vehicle: water 104 % of control | dose: 200.0 mg/kg/injection, schedule: Q01DX009 (ip), vehicle: water 99 % of control

CC1=C2CCC3(C)C(=C2OC1=O)C(C)=C(Cl)C(Cl)C3Cl (stereo unspecified)
inactive: [8] 113 % of control | [9] 119 % of control | dose: 200.0 mg/kg/injection, schedule: Q01DX005 (ip), vehicle: Klucel (hydroxypropylcellulose) (HPC) 115 % of control

O=C1/C(=C/c2cccc([N+](=O)[O-])c2)SC(=S)N1C1CC1
inactive: [8] 89 % of control | [9] 89 % of control

c1ccc2sc(CN(Cc3nc4ccccc4s3)Cc3nc4ccccc4s3)nc2c1
inactive: [4] 103 % of control | [10] 101 % of control | [11] 100 % of control

NC(CCC(=O)O)C(=O)NC(Cc1c[nH]c2ccccc12)C(=O)O (stereo unspecified)
inactive: [4] 103 % of control | [10] 96 % of control | [11] 105 % of control

CCOc1ccc(-n2cnc3c(=O)[nH]c(N)nc32)cc1
inactive: dose: 15.0 mg/kg/injection, schedule: Q01DX005 (ip), vehicle: saline with Tween-80 90 % of control | dose: 30.0 mg/kg/injection, schedule: Q01DX005 (ip), vehicle: saline with Tween-80 91 % of control | [5] 86 % of control and 90 % of control | [7] 102 % of control

CCN(CC)CCN(C(=O)C1c2ccccc2Oc2ccccc21)c1ccccc1
inactive: dose: 12.5 mg/kg/injection, schedule: Q01DX005 (ip), vehicle: Klucel (hydroxypropylcellulose) (HPC) 106 % of control | dose: 25.0 mg/kg/injection, schedule: Q01DX005 (ip), vehicle: Klucel (hydroxypropylcellulose) (HPC) 100 % of control | [8] 100 % of control and 94 % of control

CC(C)[C@]12O[C@H]1[C@@H]1O[C@]13[C@]1(O[C@H]1C[C@H]1C4=C(CC[C@@]13C)C(=O)OC4)[C@@H]2O
inactive: dose: 62.5 micrograms/kg/injection, schedule: Q01DX009 (ip), vehicle: saline with Tween-80 95 % of control | dose: 125.0 micrograms/kg/injection, schedule: Q01DX009 (ip), vehicle: saline with Tween-80 95 % of control | dose: 250.0 micrograms/kg/injection, schedule: Q01DX009 (ip), vehicle: saline with Tween-80 112 % of control
